Test results taken from patent US20230123334A1, “AMINO LIPID COMPOUND, PREPARATION METHOD THEREFOR, AND APPLICATION THEREOF” (SHENZHEN SHENXIN BIOTECHNOLOGY CO., LTD., priority 2020, published 2023).

What follows are compounds tested on HEK293 cells (assay: Preliminary screening as DNA vectors, GFP transfection of HEK293 cells). Conditions: amino lipid/DOPE liposome with 75 ng plasmid DNA (psin-EGFP-IRES-Puro); number of GFP-expressing cells divided by total nuclei (Hoechst).
Format: cell-based
Outline: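 Lipid + DOPE liposomes (NaOAc, pH 5.6) complexed w/ 75 ng psin-EGFP-IRES-Puro, 30 min RT; added to 3-5×10^4 HEK293/well, 37° C. Hoechst 0.2 μg/mL at 20-24 h, imaged after further 20-24 h. Efficiency = GFP+ cells / total nuclei.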

Row | SMILES | Absolute DNA transfection efficiency in HEK293 cells [%]
1 | CCCCCCCCCCCCCCCSc1nc(NCCN2CCCC2)nc(SCCCCCCC)n1 [S7S15 D3] | 4.6
2 | CCCCCCCCCCCCCCCSc1nc(NCCN2CCCCC2)nc(SCCCCCCC)n1 [S7S15 D4] | 11.6
3 | CCCCCCCCCCCCCCCSc1nc(NCCN2CCN(C)CC2)nc(SCCCCCCC)n1 [S7S15 D5] | 14.9
4 | CCCCCCCCCCCCCCCSc1nc(NCCCN(C)C)nc(SCCCCCCC)n1 [S7S15 D6] | 7.6
5 | CCCCCCCCCCCCCCCSc1nc(NCCN(CC)CC)nc(SCCCCCCC)n1 [S7S15 D7] | 5.0
6 | CCCCCCCCCCCCCCCSc1nc(NCCCN2CCOCC2)nc(SCCCCCCC)n1 [S7S15 D8] | 10.9
7 | CCCCCCCCCCCCCCCSc1nc(NCCCN2CCN(C)CC2)nc(SCCCCCCC)n1 [S7S15 D9] | 1.6
8 | CCCCCCCCCCCCCCCSc1nc(NCC2CCN(C)CC2)nc(SCCCCCCC)n1 [S7S15 D10] | 33.3
9 | CCCCCCCCCCCCCCCCSc1nc(NCCN(C)C)nc(SCCCCCCC)n1 [S7S16 D1] | 10.0
10 | CCCCCCCCCCCCCCCCSc1nc(NCCN2CCOCC2)nc(SCCCCCCC)n1 [S7S16 D2] | 17.6
11 | CCCCCCCCCCCCCCCCSc1nc(NCCN2CCCC2)nc(SCCCCCCC)n1 [S7S16 D3] | 6.3
12 | CCCCCCCCCCCCCCCCSc1nc(NCCN2CCCCC2)nc(SCCCCCCC)n1 [S7S16 D4] | 10.9
13 | CCCCCCCCCCCCCCCCSc1nc(NCCN2CCN(C)CC2)nc(SCCCCCCC)n1 [S7S16 D5] | 7.9
14 | CCCCCCCCCCCCCCCCSc1nc(NCCCN(C)C)nc(SCCCCCCC)n1 [S7S16 D6] | 9.0
15 | CCCCCCCCCCCCCCCCSc1nc(NCCN(CC)CC)nc(SCCCCCCC)n1 [S7S16 D7] | 3.5
16 | CCCCCCCCCCCCCCCCSc1nc(NCCCN2CCOCC2)nc(SCCCCCCC)n1 [S7S16 D8] | 12.8
17 | CCCCCCCCCCCCCCCCSc1nc(NCCCN2CCN(C)CC2)nc(SCCCCCCC)n1 [S7S16 D9] | 2.3
18 | CCCCCCCCCCCCCCCCSc1nc(NCC2CCN(C)CC2)nc(SCCCCCCC)n1 [S7S16 D10] | 22.2
19 | CCCCCCCCCCCCCCCCCCSc1nc(NCCN(C)C)nc(SCCCCCCC)n1 [S7S18 D1] | 3.7
20 | CCCCCCCCCCCCCCCCCCSc1nc(NCCN2CCOCC2)nc(SCCCCCCC)n1 [S7S18 D2] | 7.1
21 | CCCCCCCCCCCCCCCCCCSc1nc(NCCN2CCCC2)nc(SCCCCCCC)n1 [S7S18 D3] | 11.2
22 | CCCCCCCCCCCCCCCCCCSc1nc(NCCN2CCCCC2)nc(SCCCCCCC)n1 [S7S18 D4] | 8.3
23 | CCCCCCCCCCCCCCCCCCSc1nc(NCCN2CCN(C)CC2)nc(SCCCCCCC)n1 [S7S18 D5] | 14.2

Row | SMILES | Absolute DNA transfection efficiency in HEK293 cells [%]
24 | CCCCCCCCCCCCCCCCCCSc1nc(NCCCN(C)C)nc(SCCCCCCC)n1 [S7S18 D6] | 5.5
25 | CCCCCCCCCCCCCCCCCCSc1nc(NCCN(CC)CC)nc(SCCCCCCC)n1 [S7S18 D7] | 7.3
26 | CCCCCCCCCCCCCCCCCCSc1nc(NCCCN2CCOCC2)nc(SCCCCCCC)n1 [S7S18 D8] | 16.1
27 | CCCCCCCCCCCCCCCCCCSc1nc(NCCCN2CCN(C)CC2)nc(SCCCCCCC)n1 [S7S18 D9] | 13.1
28 | CCCCCCCCCCCCCCCCCCSc1nc(NCC2CCN(C)CC2)nc(SCCCCCCC)n1 [S7S18 D10] | 48.9
29 | CCCCCCCCCCCCN(CCCCCCCCCCCC)c1nc(NCCN(C)C)nc(SCCCCCCC)n1 [S7^2N12 D1] | 0.2
30 | CCCCCCCCCCCCN(CCCCCCCCCCCC)c1nc(NCCN2CCOCC2)nc(SCCCCCCC)n1 [S7^2N12 D2] | 0.0
31 | CCCCCCCCCCCCN(CCCCCCCCCCCC)c1nc(NCCN2CCCC2)nc(SCCCCCCC)n1 [S7^2N12 D3] | 0.1
32 | CCCCCCCCCCCCN(CCCCCCCCCCCC)c1nc(NCCN2CCCCC2)nc(SCCCCCCC)n1 [S7^2N12 D4] | 0.0
33 | CCCCCCCCCCCCN(CCCCCCCCCCCC)c1nc(NCCN2CCN(C)CC2)nc(SCCCCCCC)n1 [S7^2N12 D5] | 0.2
34 | CCCCCCCCCCCCN(CCCCCCCCCCCC)c1nc(NCCCN(C)C)nc(SCCCCCCC)n1 [S7^2N12 D6] | 0.6
35 | CCCCCCCCCCCCN(CCCCCCCCCCCC)c1nc(NCCN(CC)CC)nc(SCCCCCCC)n1 [S7^2N12 D7] | 0.2
36 | CCCCCCCCCCCCN(CCCCCCCCCCCC)c1nc(NCCCN2CCOCC2)nc(SCCCCCCC)n1 [S7^2N12 D8] | 0.0
37 | CCCCCCCCCCCCN(CCCCCCCCCCCC)c1nc(NCCCN2CCN(C)CC2)nc(SCCCCCCC)n1 [S7^2N12 D9] | 0.3
38 | CCCCCCCCCCCCN(CCCCCCCCCCCC)c1nc(NCC2CCN(C)CC2)nc(SCCCCCCC)n1 [S7^2N12 D10] | 0.5
39 | CCCCCCCCSc1nc(NCCCCCC)nc(NCCN(C)C)n1 [S8N6 D1] | 3.4
40 | CCCCCCCCSc1nc(NCCCCCC)nc(NCCN2CCOCC2)n1 [S8N6 D2] | 0.2
41 | CCCCCCCCSc1nc(NCCCCCC)nc(NCCN2CCCC2)n1 [S8N6 D3] | 3.2
42 | CCCCCCCCSc1nc(NCCCCCC)nc(NCCN2CCCCC2)n1 [S8N6 D4] | 2.6
43 | CCCCCCCCSc1nc(NCCCCCC)nc(NCCN2CCN(C)CC2)n1 [S8N6 D5] | 5.0
44 | CCCCCCCCSc1nc(NCCCCCC)nc(NCCCN(C)C)n1 [S8N6 D6] | 4.3
45 | CCCCCCCCSc1nc(NCCCCCC)nc(NCCN(CC)CC)n1 [S8N6 D7] | 1.8
46 | CCCCCCCCSc1nc(NCCCCCC)nc(NCCCN2CCOCC2)n1 [S8N6 D8] | 0.0

Row | SMILES | Absolute DNA transfection efficiency in HEK293 cells [%]
47 | CCCCCCCCSc1nc(NCCCCCC)nc(NCCCN2CCN(C)CC2)n1 [S8N6 D9] | 2.2
48 | CCCCCCCCSc1nc(NCCCCCC)nc(NCC2CCN(C)CC2)n1 [S8N6 D10] | 0.5
49 | CCCCCCCCSc1nc(NCCCCCCC)nc(NCCN(C)C)n1 [S8N7 D1] | 3.0
50 | CCCCCCCCSc1nc(NCCCCCCC)nc(NCCN2CCOCC2)n1 [S8N7 D2] | 0.4
51 | CCCCCCCCSc1nc(NCCCCCCC)nc(NCCN2CCCC2)n1 [S8N7 D3] | 3.9
52 | CCCCCCCCSc1nc(NCCCCCCC)nc(NCCN2CCCCC2)n1 [S8N7 D4] | 3.8
53 | CCCCCCCCSc1nc(NCCCCCCC)nc(NCCN2CCN(C)CC2)n1 [S8N7 D5] | 3.6
54 | CCCCCCCCSc1nc(NCCCCCCC)nc(NCCCN(C)C)n1 [S8N7 D6] | 8.5
55 | CCCCCCCCSc1nc(NCCCCCCC)nc(NCCN(CC)CC)n1 [S8N7 D7] | 1.4
56 | CCCCCCCCSc1nc(NCCCCCCC)nc(NCCCN2CCOCC2)n1 [S8N7 D8] | 0.8
57 | CCCCCCCCSc1nc(NCCCCCCC)nc(NCCCN2CCN(C)CC2)n1 [S8N7 D9] | 3.6
58 | CCCCCCCCSc1nc(NCCCCCCC)nc(NCC2CCN(C)CC2)n1 [S8N7 D10] | 1.2
59 | CCCCCCCCNc1nc(NCCN(C)C)nc(SCCCCCCCC)n1 [S8N8 D1] | 9.3
60 | CCCCCCCCNc1nc(NCCN2CCOCC2)nc(SCCCCCCCC)n1 [S8N8 D2] | 1.5
61 | CCCCCCCCNc1nc(NCCN2CCCC2)nc(SCCCCCCCC)n1 [S8N8 D3] | 8.5
62 | CCCCCCCCNc1nc(NCCN2CCCCC2)nc(SCCCCCCCC)n1 [S8N8 D4] | 2.9
63 | CCCCCCCCNc1nc(NCCN2CCN(C)CC2)nc(SCCCCCCCC)n1 [S8N8 D5] | 9.1
64 | CCCCCCCCNc1nc(NCCCN(C)C)nc(SCCCCCCCC)n1 [S8N8 D6] | 8.7
65 | CCCCCCCCNc1nc(NCCN(CC)CC)nc(SCCCCCCCC)n1 [S8N8 D7] | 5.2
66 | CCCCCCCCNc1nc(NCCCN2CCOCC2)nc(SCCCCCCCC)n1 [S8N8 D8] | 2.9
67 | CCCCCCCCNc1nc(NCCCN2CCN(C)CC2)nc(SCCCCCCCC)n1 [S8N8 D9] | 7.4
68 | CCCCCCCCNc1nc(NCC2CCN(C)CC2)nc(SCCCCCCCC)n1 [S8N8 D10] | 6.1
